Assays:
Test in all cases: GRmax, 72 h; higher = less effect;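 further: breast cell lines in 384-well plates, nine doses across a 10^4 range, Dye Drop imaging of viable cells vs DMSO and time-zero plates, GR 0 means no net growth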
[1] = system: SKBR3
[2] = system: MCF7
[3] = system: PDX1258
[4] = system: BT474
[5] = system: HCC1395
[6] = system: MDAMB361
[7] = system: SUM149
[8] = system: PDX1328
[9] = system: ZR7530
[10] = system: MDAMB415
[11] = system: HCC202
[12] = system: MDAMB468

SMILES	GRmax, 72 h [1] [GR]	GRmax, 72 h [2] [GR]	GRmax, 72 h [3] [GR]	GRmax, 72 h [4] [GR]	GRmax, 72 h [5] [GR]	GRmax, 72 h [6] [GR]	GRmax, 72 h [7] [GR]	GRmax, 72 h [8] [GR]	GRmax, 72 h [9] [GR]	GRmax, 72 h [10] [GR]	GRmax, 72 h [11] [GR]	GRmax, 72 h [12] [GR]
COc1ccc2c(c1)[C@]1(C[C@H]1c1ccc3c(/C=C/c4ccc(CN5C[C@@H](C)O[C@@H](C)C5)cc4)n[nH]c3c1)C(=O)N2	-0.0682	-0.0551	-0.0552	0.18	-0.178	0.272	-0.0713	-0.0338	0.174	0.157	0.493	-0.38
COc1cccc(OCCCN)c1-c1cc(Nc2cnc(C#N)cn2)n[nH]1	-0.406	0.211	-0.457	0.715	-0.491	-0.386	-0.453	0.111	0.561	0.69	0.0486	0.6
CC(=O)Nc1cccc(-n2c(=O)n(C3CC3)c(=O)c3c(Nc4ccc(I)cc4F)n(C)c(=O)c(C)c32)c1 (max 1 µM)	0.683	0.558	0.85	1.36	0.45	0.502	0.237	0.661	0.405	0.285	0.526	0.407
CCc1cnn2c(NCc3ccc[n+]([O-])c3)cc(N3CCCC[C@H]3CCO)nc12 (max 1 µM)	-0.621	-0.249	-0.617	-0.762	-0.497	-0.275	-0.566	-0.577	-0.714	-0.488	0.0907	-0.413
CC(=O)c1c(C)c2cnc(Nc3ccc(N4CCNCC4)cn3)nc2n(C2CCCC2)c1=O (max 3.162 µM)	0.35	0.254	1.02	0.519	0.348	0.148	0.485	0.361	0.266	0.117	0.691	1.05
CCc1cncnc1N1CCN(Cc2nc3ccc(C(F)(F)F)cc3[nH]2)CC1 (max 10 µM)	0.734	0.558	0.775	0.508	0.659	0.192	0.746	0.619	0.113	0.431	0.673	0.0813
CCCCOc1c(C(=O)c2c(F)cc(C)cc2F)c[nH]c2nncc1-2 (max 10 µM)	-0.0172	0.072	-0.232	0.503	-0.214	0.216	0.0975	0.773	0.212	0.24	0.384	-0.112
CCN1CCN(Cc2ccc(Nc3ncc(F)c(-c4cc(F)c5nc(C)n(C(C)C)c5c4)n3)nc2)CC1 (max 10 µM)	0.143	-0.268	-0.331	0.301	-0.52	-0.342	0.0962	-0.65	0.125	-0.0085	0.3	-0.288
CNc1nc(-c2ccc3c(N)n[nH]c3c2)cc(N2C[C@@H](C(=O)NC3CCCCC3)CC[C@H]2C)n1 (max 10 µM)	0.307	0.295	0.644	0.151	0.518	-0.417	0.698	0.545	0.348	0.0477	0.155	0.531
CO[C@@H](C)Cn1c(=O)n(C)c2cnc3ccc(-c4cncc(C(C)(C)O)c4)cc3c21 (max 10 µM)	-0.502	-0.248	-0.344	-0.844	-0.0122	-0.988	-0.0342	0.0061	-0.36	-0.473	-0.0355	-0.211
Cc1nn(C)c(COc2ccc(N3CCN(S(=O)(=O)N(C)C)CC3)cc2)c1-c1cccc2c(CCCOc3cccc4ccccc34)c(C(=O)O)n(CCN3CCOCC3)c12 (max 10 µM)	0.627	0.877	0.919	0.69	0.859	0.985	0.391	0.873	0.576	0.881	0.828	0.93
CN(C)CC[C@H](CSc1ccccc1)Nc1ccc(S(=O)(=O)NC(=O)c2ccc(N3CCN(Cc4ccccc4-c4ccc(Cl)cc4)CC3)cc2)cc1[N+](=O)[O-] [ABT-737] (max 10 µM)	0.947	0.727	0.758	0.181	0.861	0.844	-0.28	-0.678	0.552	0.352	0.588	0.142
C=CCn1c(=O)c2cnc(Nc3ccc(N4CCN(C)CC4)cc3)nc2n1-c1cccc(C(C)(C)O)n1 [AZD1775] (max 10 µM)	-0.561	-0.0913	-0.46	-0.398	-0.587	-0.348	-0.497	-0.32	-0.501	-0.186	-0.148	-0.492
CNC(=O)c1cccc(-c2ccc3c(N4CCOC[C@@H]4C)nc(N4CCOC[C@@H]4C)nc3n2)c1 [AZD2014] (max 10 µM)	-0.0488	-0.0281	-0.118	-0.421	0.274	-0.756	0.418	0.0715	-0.24	-0.138	0.0087	0.23
NC1(C(=O)N[C@@H](CCO)c2ccc(Cl)cc2)CCN(c2nc[nH]c3nccc2-3)CC1 [AZD5363] (max 10 µM)	0.138	0.476	0.321	0.0474	0.0739	-0.38	0.34	0.766	0.187	-0.529	0.572	0.545

From the supplement of paper PMC9663587
